Experimental data: patent US20130217765A1, “MULTIFUNCTIONAL NANOCONJUGATES AND USES THEREOF” (priority 2012, published 2013)

Experiments:
plasmid DNA = assay: Plasmid DNA nicking by agarose gel electrophoresis after light exposure; format: biochemical; conditions: visible light, 150 W halogen bulb, 10 min
Procedure: The effect of visible light activated ARS-coated TiO2 nanoparticles was assessed by illuminating plasmid containing samples with a Fiber-Lite MI-150High Intensity Fiber Optic EKE 150 W21VHalogen Light Illuminator (Dolan-Jenner Industries, Boxborough, Mass., USA) for 10 min. […] All samples were then run on a 1.25% agarose gel at 60V for 4 h, stained with GelStar (Lonza, Mapleton, Ill., USA), and imaged on a Kodak Gel Logic 2200 Imaging System (Kodak, Rochester, N.Y., USA).
Considering these factors, we sought to determine the effect of visible light activated ARS-coated TiO2 nanoparticles on plasmid DNA integrity using a standard agarose gel electrophoresis technique developed by others. According to this assay, nicked (single-stranded DNA break), linear (double-stranded DNA break), and supercoiled (undamaged) plasmid DNA can be distinguished on an agarose gel by viewing differences in mobility (with the nicked plasmid DNA migrating at the slowest rate and supercoiled plasmid DNA migrating at the fastest rate) [13,15]. Samples were prepared that contained plasmid DNA and either (1) dH2O, (2) ARS, (3) TiO2 nanoparticles, or (4) ARS-coated TiO2 nanoparticles. […]

[1] = system: kanamycin-resistant E. coli; assay: Bacterial assay: incubation with samples, halogen light, plating on kanamycin LB agar; format: cell-based; conditions: incubated 10 minutes, 150 W halogen bulb 10 minutes, plated overnight at 37° C.
Procedure: When using dye-coated TiO2 nanoconjugates to inflict damage on bacteria, the dye alizarin red s was used (FIG. 24). The following protocol was used: a bacterial culture of kanamycin-resistant E. coli was grown overnight at 37° C. at 250 rpm and then stored at 4° C. for later use in the experiment. Aliquots of the starter bacterial culture were then incubated with either (1) dH2O, (2) alizarin red s, (3) 6 nm TiO2 nanoparticles, or (4) alizarin red s-coated-6 nm TiO2 nanoconjugates for 10 minutes. All samples were then exposed to a 150 W halogen bulb for 10 minutes and plated on kanamycin-containing LB agar plates, incubated overnight at 37° C., and photographed with a digital camera.

emerin = assay: Emerin integrity and distribution in HeLa cells, fluorescence confocal microscopy; format: cell-based; conditions: regardless of light treatment
Procedure: (§1) HeLa cells were grown on #1 glass coverslips to approximately 20% confluence and then exposed to ARS-coated TiO2 nanoparticles or appropriate controls overnight. Respective samples were either exposed to no light or light with a Fiber-Lite MI-150 High Intensity Fiber Optic 150 W Halogen Light Illuminator for 10 min. All samples were fixed in 3.6% formaldehyde (Fisher Scientific, Waltham, Mass., USA) and permeabilized in 0.2% Triton-100× (Fisher Scientific) for 10 min. Cells were then stained with either a mouse monoclonal to emerin primary antibody (Abcam, Cambridge, Mass., USA) followed by an Alexa488 goat anti-mouse IgG (H+L) secondary antibody (Invitrogen, Grand Island, N.Y., USA) or a chicken polyclonal to lamin B1 primary antibody (Abcam) followed by an Alexa488 goat anti-chicken IgG (H+L) secondary antibody (Invitrogen). All samples were then stained with Hoechst 33342 (Sigma) and coverslips were mounted in P-phenylenediamine containing mounting media. Samples were imaged on an Olympus IX81-UCB Spinning Disc Confocal Microscope (Olympus, Center Valley, Pa., USA) using a 100 W mercury burner (Ushio, Tokyo, Japan), Brightline filters for DAPI, FITC, and TEXAS RED (Semrock, Rochester, N.Y., USA), and an ORCA-ER-1394 high-resolution digital camera (Hamamatsu, Japan). All images are presented as […] optical slice fluorescence overlays in either two or three dimensions. […]

lamin B1 = assay: Lamin B1 integrity and distribution in HeLa cells, fluorescence confocal microscopy; format: cell-based; conditions: light or no light
Procedure: as §1

HeLa cells = assay: Duration of light exposure on HeLa cells treated with dye-modified TiO2 nanoparticles; format: cell-based; conditions: dark or 30 minutes of 750 W halogen visible light, fixed 24 hours post exposure
Procedure: In this Example, we tested the duration of light exposure on cells treated with dye-modified TiO2 nanoparticles. […] Cells were fixed in 4% formaldehyde 24 hours post exposure and 1 μm slices fluorescence confocal images are presented. […] The cellular response is heterogeneous.

Row | Compound | nicking of plasmid DNA (plasmid DNA) | bacterial growth (colonies on plate) [1] | emerin integrity and distribution (emerin) | lamin B1 integrity and distribution (lamin B1) | cellular responses (HeLa cells)
1 | O=C1c2ccccc2C(=O)c2c1cc(S(=O)(=O)[O-])c(O)c2O.[Na+] [ARS, alizarin red s] | slight expected increase in nicked plasmid DNA | bacterial colonies are witnessed | normal emerin integrity and distribution | normal lamin B1 integrity and distribution | 
2 | alizarin blue black b [ABBB] |  |  |  |  | no detectable cellular responses
